No end group written: not given here.
Tested on: zebrafish embryos
Assay: Toxicity assay in zebrafish embryos
Format: in vivo
Conditions: embryos exposed 24 h from 24 hpf to 3, 30 and 300 µM in E3; scored at 48 hpf for cytotoxicity, developmental toxicity, cardiotoxicity, neurotoxicity; two independent assays, 10 × 3 embryos each
Procedure: Finally, we evaluated the toxicity of EPI-X4 JM#21 408–414-NH2 in zebrafish embryos, a widely used in vivo model for toxicity studies. We exposed embryos for 24 h starting at 24 h post fertilization (hpf), when most organ systems have already developed and are functional. Transparency of the embryos allows for evaluation by light microscopy not only of mortality, but also of sublethal cytotoxicity (necrosis, lysis), developmental toxicity (developmental delay, malformations), or toxicity affecting specific organ systems, in particular cardiotoxicity (heart edema, reduced circulation), and neurotoxicity (reduced touch escape response).
Wild-type zebrafish embryos were dechorionated at 24 hpf using digestion with 1 mg/ml pronase (Sigma) in E3 medium ([…]). […] At 48 hpf (after 24 h of incubation) embryos were scored in a stereomicroscope for signs of cytotoxicity (lysis and/or necrosis), developmental toxicity (delay and/or malformations), or cardiotoxicity (heart edema and/or reduced or absent circulation). Each embryo was also touched with a needle, and reduced or absent touch responses (escape movements) were evaluated as signs of neurotoxicity if and only if no signs of cytotoxicity were present in the same embryo. […]
T2: severe damage so that other phenotypes cannot be assessed (L3, L4, Nec2)

With ILRWSRK-NH2 [JM#21 408–414-NH2] as the substance, how does the “toxicity in zebrafish embryos” value read?
The value was “nontoxic even at high concentrations”.
